Experimental data as given in patent publication US20240246902A1, “PRODRUGS OF 6-DIAZO-5-OXO-L-NORLEUCINE” (THE JOHNS HOPKINS UNIVERSITY, priority 2021, published 2024).
In brackets after ≈: the same amount, converted by molar mass. Read-outs that look alike come from different tables or passages of the source.

Tests used:
[1] = not told
[2] = Plasma stability, plasma from CES1KO mice; conditions: CES1KO = Mouse Plasma from CES1KO mice
[3] = Plasma stability, mouse plasma; conditions: MP = Mouse Plasma
[4] = Metabolic stability in swine liver tissue homogenate; assay type: in vitro ADME; conditions: prodrug 20 μM, 37° C.
Procedure: (§1) The representative Compounds of the Disclosure were screened for metabolic stability in swine jejunum/liver tissue homogenates, following our previously reported methods (Zimmermann et al., J. Med. Chem., 61(9):3918-29 (2018); Tenora et al., J. Med. Chem., 62(7):3524-38 (2019)). In brief, freshly collected tissues were homogenized by probe sonication in 9× volume of 0.1 M potassium phosphate buffer over ice. Post homogenization, prodrugs were spiked at a concentration of 20 μM (in triplicate) and incubated in an orbital shaker at 37° C. for 60 min. Final concentration of DMSO in the incubations was 0.2% v/v. At each time point (0, 30, 60 min), 100 μL of sample was precipitated with 300 μL of methanol containing internal standard (IS; losartan: 0.5 μM). […] After centrifugation, 50 μL of supernatant was diluted with 50 μL of water, vortexed and submitted for analysis. Prodrug disappearance over time was measured using liquid chromatography tandem mass spectrometry (LC-MS/MS).
(§2) The processed supernatants were analyzed on a Thermo Scientific Vanquish UPLC system (equipped with Vanquish autosampler, pumps, and column compartment) hyphenated to TSQ Altis mass spectrometer (Thermo Fisher Scientific Inc., Waltham MA). […] The autosampler was operated at 4° C. […] Peak area ratios obtained from peak area counts of analyte and internal standard were used to measure the disappearance of prodrugs.

[5] = Plasma stability, human plasma; assay type: in vitro ADME; conditions: HP = Human Plasma
[6] = Metabolic stability in swine jejunum (gut) tissue homogenate; assay type: in vitro ADME; conditions: prodrug 20 μM, 37° C.
Procedure: as §1, §2

[7] = Plasma stability, rat plasma; assay type: in vitro ADME; conditions: RP = Rat Plasma

Compound | Efflux [1] | Efflux (Efflux; not told) | Plasma Stability (% remaining at 60 min) [2] | Plasma Stability (% remaining at 60 min) [3] | Liver stability (% remaining at 60 min) [4] [%] | Efflux (Efflux) | solubility (Solubility) [µg/mL] | Plasma Stability (% remaining at 60 min) [5] | Gut Stability (% remaining at 60 min) [6] [%] | Plasma Stability (% remaining at 60 min) [7]
Cn1cc(C[C@H](NC(=O)CCCNC(=O)C23CCN(CC2)CC3)C(=O)N[C@@H](CCC(=O)C=[N+]=[N-])C(=O)OC(C)(C)C)c2ccccc21 [Compound 12g, tert-Butyl (S)-6-diazo-2-((S)-3-(1-methyl-1H-indol-3-yl)-2-(4-(quinuclidine-4-carboxamido)butanamido)propanamido)-5-oxohexanoate] | 1 | – | – | – | – | – | – | – | – | –
Cn1cc(C[C@H](NC(=O)OC2CN3CCC2CC3)C(=O)N[C@@H](CCC(=O)C=[N+]=[N-])C(=O)OC(C)(C)C)c2ccccc21 (stereo partly drawn) [Compound 12d, tert-Butyl (2S)-6-diazo-2-((2S)-3-(1-methyl-1H-indol-3-yl)-2-(((quinuclidin-3-yloxy)carbonyl)amino)propanamido)-5-oxohexanoate] | – | 65.59 | 88 ± 2 (Ces1KO) % | 10 ± 2 (MP) % | 89 ± 1 | – | – | – | – | –
CC(=O)N[C@@H](Cc1c[nH]c2ccccc12)C(=O)N[C@@H](CCC(=O)C=[N+]=[N-])C(=O)OC(C)C [13′, reference compound] | – | – | 94 ± 1 (ces1KO) % | 0 ± 0 (MP) % | – | 23 | 240 (≈ 0.544 mM) | 96 ± 3 (HP) % | 11 ± 1 | –
CN(C)CC(=O)NCC(=O)N[C@@H](CCC(=O)C=[N+]=[N-])C(=O)OC(C)(C)C [Compound 14b, tert-Butyl (S)-6-diazo-2-(2-(2-(dimethylamino)acetamido)acetamido)-5-oxohexanoate] | – | – | – | 73 ± 2 (MP) % | 90 ± 0 | 33 | ~10000 (≈ 27.1 mM) | 100 ± 5 (HP) % | 99 ± 2 | –
COCCOCCOC(=O)[C@H](CCC(=O)C=[N+]=[N-])NC(=O)[C@H](Cc1c[nH]c2ccccc12)NC(=O)CN(C)C [Compound 30b, 2-(2-Methoxyethoxy)ethyl (S)-6-diazo-2-((S)-2-(2-(dimethylamino)acetamido)-3-(1H-indol-3-yl)propanamido)-5-oxohexanoate] | – | – | – | – | – | – | – | 42 ± 1 (HP) % | – | –
CC(=O)N[C@@H](Cc1c[nH]c2ccccc12)C(=O)N[C@@H](CCC(=O)C=[N+]=[N-])C(N)=O [Compound 31a, (S)-2-((S)-2-Acetamido-3-(1H-indol-3-yl)propanamido)-6-diazo-5-oxohexanamide] | – | – | – | 6 ± 1 (MP % | 58 ± 2 | 1 | – | 100 ± 2 (HP) % | 79 ± 7 | –
CC(C)OC(=O)[C@H](CCC(=O)C=[N+]=[N-])NC(=O)[C@H](Cc1c[nH]c2ccccc12)NC(=O)C(Cl)Cl [Compound 8n, Isopropyl (S)-6-diazo-2-((S)-2-(2,2-dichloroacetamido)-3-(1H-indol-3-yl)propanamido)-5-oxohexanoate] | – | – | 69 ± 3 (ces1KO) % | – | 0 ± 0 | 49 | – | – | – | –
CC(C)(C)OC(=O)[C@H](CCC(=O)C=[N+]=[N-])NC(=O)c1cccnc1 [Compound 5j, tert-Butyl (S)-6-diazo-2-(nicotinamido)-5-oxohexanoate] | – | – | – | – | 78 ± 1 | – | ~4000 (≈ 12 mM) | – | 104 ± 0 | –
CN(C)CC(=O)N[C@@H](Cc1cccnc1)C(=O)N[C@@H](CCC(=O)C=[N+]=[N-])C(=O)OC(C)(C)C [Compound 17b, tert-Butyl (S)-6-diazo-2-((S)-2-(2-(dimethylamino)acetamido)-3-(pyridin-3-yl)propanamido)-5-oxohexanoate] | – | – | – | 82 ± 6 (MP) % | 91 ± 1 | 57 | ~10000 (≈ 21.7 mM) | 96 ± 3 (HP) % | 98 ± 1 | 33 ± 2 (RP) %
CC(C)(C)OC(=O)[C@H](CCC(=O)C=[N+]=[N-])NC(=O)[C@H](Cc1ccccc1)NC(=O)C12CCN(CC1)CC2 [Compound 15b, tert-Butyl (S)-6-diazo-5-oxo-2-((S)-3-phenyl-2-(quinuclidine-4-carboxamido)propanamido)hexanoate] | 7.31 | – | – | – | – | – | – | – | – | –
CN(C)CC(=O)N[C@H](C(=O)N[C@@H](CCC(=O)C=[N+]=[N-])C(=O)OC(C)(C)C)c1ccccc1 [Compound 19a, tert-Butyl (S)-6-diazo-2-((S)-2-(2-(dimethylamino)acetamido)-2-phenylacetamido)-5-oxohexanoate] | 24.37 | – | – | – | 82 ± 0 | – | – | – | – | –
CN(C)CC(=O)N[C@@H](Cc1ccc(C(F)(F)F)cc1)C(=O)N[C@@H](CCC(=O)C=[N+]=[N-])C(=O)OC(C)(C)C [Compound 23a, tert-Butyl (S)-6-diazo-2-((S)-2-(2-(dimethylamino)acetamido)-3-(4-(trifluoromethyl)phenyl)propanamido)-5-oxohexanoate] | – | – | 70 ± 14 (Ces1KO) % | 79 ± 2 (MP) % | 72 ± 0 | 32.76 | – | – | – | –
CN(C)CC(=O)N[C@@H](Cc1ccccc1)C(=O)N[C@@H](CCC(=O)C=[N+]=[N-])C(=O)OC(C)(C)C [Compound 15a, tert-Butyl (S)-6-diazo-2-((S)-2-(2-(dimethylamino)acetamido)-3-phenylpropanamido)-5-oxohexanoate] | – | – | 93 ± 1 (ces1KO MP) % | 67 ± 1 (MP) % | 81 ± 2 | 48 | – | – | 90 ± 1 | –
CC(C)OC(=O)[C@H](CCC(=O)C=[N+]=[N-])NC(=O)c1cccnc1 [Compound 5f, Isopropyl (S)-6-diazo-2-(nicotinamido)-5-oxohexanoate] | – | – | – | – | 0 ± 0 | – | ~5000 (≈ 15.7 mM) | – | – | –
CC(C)(C)OC(=O)[C@H](CCC(=O)C=[N+]=[N-])NC(=O)CNC(=O)C12CCN(CC1)CC2 [Compound 14d, tert-Butyl (S)-6-diazo-5-oxo-2-(2-(quinuclidine-4-carboxamido)acetamido)hexanoate] | 1.48 | – | – | – | – | – | – | – | – | –
CN(C)CC(=O)N[C@@H](Cc1c[nH]c2ccccc12)C(=O)N[C@@H](CCC(=O)C=[N+]=[N-])C(=O)OC(C)(C)C [Compound 11b, tert-Butyl (S)-6-diazo-2-((S)-2-(2-(dimethylamino)acetamido)-3-(1H-indol-3-yl)propanamido)-5-oxohexanoate] | – | – | – | 68 ± 2 (MP) % | 80 ± 3 | 33 | 170 (≈ 0.341 mM) | 101 ± 0 (HP) % | 79 ± 4 | 3 ± 0 (RP) %
CN(C)CC(=O)N[C@@H](CCc1ccccc1)C(=O)N[C@@H](CCC(=O)C=[N+]=[N-])C(=O)OC(C)(C)C [Compound 20a, tert-Butyl (S)-6-diazo-2-((S)-2-(2-(dimethylamino)acetamido)-4-phenylbutanamido)-5-oxohexanoate] | – | – | 102 ± 2 (ces1KO) % | 60 ± 7 (MP) % | 69 ± 1 | 61.35 | – | – | – | –
Cn1cc(C[C@H](NC(=O)C2CN3CCC2CC3)C(=O)N[C@@H](CCC(=O)C=[N+]=[N-])C(=O)OC(C)(C)C)c2ccccc21 (stereo partly drawn) [Compound 12c, tert-Butyl (2S)-6-diazo-2-((2S)-3-(1-methyl-1H-indol-3-yl)-2-(quinuclidine-3-carboxamido)propanamido)-5-oxohexanoate] | 5.37 | – | – | – | – | – | – | – | – | –
